Measured values from ChEMBL document CHEMBL1142811, “Design and syntheses of melanocortin subtype-4 receptor agonists. Part 2: discovery of the dihydropyridazinone motif” (Bioorg Med Chem Lett, 2005).
pEC50, pIC50: −log10 of the molar value.

Experiments:
[1] = target: T1, Melanocortin receptor 5 (Homo sapiens, UniProt P33032); test: Inhibition of [125I]-NDP- alpha-MSH binding to human melanocortin 5 receptor expressed in CHO cells; format: cell-based
[2] = target: T2, Melanocortin receptor 4 (Homo sapiens, UniProt P32245); test: Inhibition of [125I]-NDP- alpha-MSH binding to human melanocortin 4 receptor expressed in CHO cells; format: cell-based
[3] = target: T3, Melanocortin receptor 3 (Homo sapiens, UniProt P41968); test: Maximum percentage of cAMP accumulation compared to alpha-MSH at human melanocortin 3 receptor at 10 uM; format: functional
[4] = target: T1, Melanocortin receptor 5; test: Maximum percentage of cAMP accumulation compared to alpha-MSH at human melanocortin 5 receptor at 10 uM; format: functional
[5] = target: T2, Melanocortin receptor 4; test: Effective concentration at human melanocortin 4 receptor in cAMP release assay; format: functional
[6] = target: T2, Melanocortin receptor 4; test: Maximum percentage of cAMP accumulation relative to alpha-MSH at human melanocortin 4 receptor at 10 uM; format: functional
[7] = target: T3, Melanocortin receptor 3; test: Inhibition of [125I]-NDP- alpha-MSH binding to human melanocortin 3 receptor expressed in CHO cell at 4 uM; format: cell-based
[8] = target: T3, Melanocortin receptor 3; test: Maximum percentage of cAMP accumulation compared to alpha-MSH at human melanocortin 3 receptor; format: functional
[9] = target: T4, Melanocyte-stimulating hormone receptor (Homo sapiens, UniProt Q01726); test: Effective concentration against human melanocortin 1 receptor in cAMP release assay; format: functional
Target sequence in this assay (Q01726 whole entry): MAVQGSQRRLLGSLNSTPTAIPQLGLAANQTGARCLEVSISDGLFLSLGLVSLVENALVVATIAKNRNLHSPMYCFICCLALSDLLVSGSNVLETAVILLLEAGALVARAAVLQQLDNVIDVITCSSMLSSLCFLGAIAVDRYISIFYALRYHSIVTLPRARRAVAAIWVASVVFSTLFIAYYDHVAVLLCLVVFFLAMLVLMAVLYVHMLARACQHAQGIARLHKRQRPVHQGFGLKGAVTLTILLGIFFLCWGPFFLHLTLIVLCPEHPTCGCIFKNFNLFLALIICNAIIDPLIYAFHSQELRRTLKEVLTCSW

[10] = target: T4, Melanocyte-stimulating hormone receptor; test: Inhibition of [125I]-NDP- alpha-MSH binding to human melanocortin 1 receptor
Target sequence in this assay (Q01726 whole entry): as above

[11] = target: T3, Melanocortin receptor 3; test: Inhibition of [125I]-NDP- alpha-MSH binding to human melanocortin 3 receptor
[12] = target: T1, Melanocortin receptor 5; test: Inhibition of [125I]-NDP- alpha-MSH binding to human melanocortin 5 receptor
[13] = target: T1, Melanocortin receptor 5; test: Maximum percentage of cAMP accumulation compared to alpha-MSH at human melanocortin 5 receptor; format: functional
[14] = target: T4, Melanocyte-stimulating hormone receptor; conditions: 10 uM
Target sequence in this assay (Q01726 whole entry, looked up): as the sequence (Q01726 whole entry) above
Description: Maximum percentage of cAMP accumulation compared to alpha-MSH at human melanocortin 1 receptor at 10 uM

[15] = target: T3, Melanocortin receptor 3; test: Inhibition of [125I]-NDP- alpha-MSH binding to human melanocortin 3 receptor expressed in CHO cells; format: cell-based
[16] = target: T3, Melanocortin receptor 3; test: Effective concentration against human melanocortin 3 receptor in cAMP release assay; format: functional
[17] = target: T2, Melanocortin receptor 4; test: Inhibition of [125I]-NDP- alpha-MSH binding to human melanocortin 4 receptor
[18] = target: T1, Melanocortin receptor 5; test: Effective concentration against human melanocortin 5 receptor in cAMP release assay; format: functional

T3 sequence (P41968 whole entry): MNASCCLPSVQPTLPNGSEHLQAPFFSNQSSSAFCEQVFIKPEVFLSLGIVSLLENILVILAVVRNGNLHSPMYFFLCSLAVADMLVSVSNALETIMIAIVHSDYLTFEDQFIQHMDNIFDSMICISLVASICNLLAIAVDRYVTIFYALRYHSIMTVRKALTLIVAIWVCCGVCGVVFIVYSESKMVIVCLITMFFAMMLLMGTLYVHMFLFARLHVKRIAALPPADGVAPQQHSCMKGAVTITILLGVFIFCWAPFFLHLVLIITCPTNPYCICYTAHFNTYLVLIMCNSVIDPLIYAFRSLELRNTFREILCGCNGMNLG
T1 sequence (P33032 whole entry): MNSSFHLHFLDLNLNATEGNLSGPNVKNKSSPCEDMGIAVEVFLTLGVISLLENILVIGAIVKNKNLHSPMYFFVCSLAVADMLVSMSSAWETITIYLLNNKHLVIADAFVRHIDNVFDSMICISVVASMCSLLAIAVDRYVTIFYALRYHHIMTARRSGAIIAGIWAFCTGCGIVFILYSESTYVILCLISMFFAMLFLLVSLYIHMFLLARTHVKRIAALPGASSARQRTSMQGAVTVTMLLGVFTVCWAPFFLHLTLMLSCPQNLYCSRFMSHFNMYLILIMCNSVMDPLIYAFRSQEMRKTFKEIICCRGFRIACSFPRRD
T2 sequence (P32245 whole entry): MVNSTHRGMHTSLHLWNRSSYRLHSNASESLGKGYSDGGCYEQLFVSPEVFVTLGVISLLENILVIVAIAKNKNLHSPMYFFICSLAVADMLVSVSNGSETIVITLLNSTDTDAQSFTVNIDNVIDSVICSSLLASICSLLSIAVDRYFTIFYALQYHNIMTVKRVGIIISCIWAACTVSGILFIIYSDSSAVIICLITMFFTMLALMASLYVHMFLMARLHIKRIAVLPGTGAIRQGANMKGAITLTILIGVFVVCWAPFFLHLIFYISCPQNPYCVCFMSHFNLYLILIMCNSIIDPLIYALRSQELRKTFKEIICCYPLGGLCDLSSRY

Row | Compound | pIC50 [1] | pIC50 [2] | Max [3] [%] | Max [4] [%] | pEC50 [5] | Max [6] [%] | pIC50 [10] | pIC50 [11] | pIC50 [12] | further results
1 | COc1ccc(-n2nc(Sc3ccc(Cl)cc3)cc(CC[C@@H](C)NC(=O)[C@H]3CCNC[C@@H]3c3ccc(F)cc3)c2=O)cc1 | 5.92 | 7.18 | 45 | 1 | 6.96 | 101 | – | – | – | inhibition [7]: 40%
2 | COc1ccc(N2N=C(Sc3ccc(Cl)cc3)CC(CC[C@@H](C)NC(=O)C3CNC[C@@H]3c3ccc(F)cc3)C2=O)cc1 (single isomer, unassigned; 67) [listing 1 of 2 here] | – | – | 10 | 5 | – | 90 | – | – | – | –
3 | COc1ccc(N2N=C(Sc3ccc(Cl)cc3)CC(CC[C@@H](C)NC(=O)[C@H]3CCNC[C@@H]3c3ccc(F)cc3)C2=O)cc1 (stereo in doubt; 63) [listing 1 of 2 here] | – | – | – | 7 | – | 98 | – | – | – | Max [8]: 21%
4 | COc1ccc(N2N=C(Sc3ccc(Cl)cc3)CC(CC[C@@H](C)NC(=O)C3CNC[C@@H]3c3ccc(F)cc3)C2=O)cc1 (single isomer, unassigned; 67) [listing 2 of 2 here] | – | 7.74 | – | – | 7.18 | – | 6.54 | 5.80 | 6.16 | pEC50 [9]: 6.62
5 | COc1ccc(N2N=C(Sc3ccc(Cl)cc3)CC(CC[C@@H](C)NC(=O)[C@H]3CNCC[C@@H]3c3ccc(F)cc3)C2=O)cc1 (stereo in doubt; 26) [listing 1 of 2 here] | – | – | 5 | – | – | 67 | – | – | – | Max [13]: 27%; Max [14]: 12%
6 | COc1ccc(-n2nc(Sc3ccc(Cl)cc3)cc(CC[C@@H](C)NC(=O)[C@H]3CNC[C@@H]3c3ccc(F)cc3)c2=O)cc1 | 5.85 | 7.15 | – | 5 | 6.96 | 84 | – | – | – | pIC50 [15]: < 5.52; pEC50 [16]: 5.62; Max [8]: 24%
7 | COc1ccc(-n2nc(Sc3ccc(Cl)cc3)cc(CC[C@@H](C)NC(=O)[C@H]3CNCC[C@@H]3c3ccc(F)cc3)c2=O)cc1 | 6.08 | 7.96 | 6 | 7 | 7.21 | 71 | – | – | – | pIC50 [15]: 6.03
8 | COc1ccc(N2N=C(Sc3ccc(Cl)cc3)CC(CC[C@@H](C)NC(=O)[C@H]3CCNC[C@@H]3c3ccc(F)cc3)C2=O)cc1 (stereo in doubt; 63) [listing 2 of 2 here] | – | 7.66 | – | – | 7.52 | – | 5.96 | 5.33 | 5.51 | pEC50 [9]: 6.66; pEC50 [16]: 5.96; pIC50 [17]: 7.66
9 | COc1ccc(N2N=C(Sc3ccc(Cl)cc3)CC(CC[C@@H](C)NC(=O)[C@H]3CNCC[C@@H]3c3ccc(F)cc3)C2=O)cc1 (stereo in doubt; 26) [listing 2 of 2 here] | – | 8.82 | – | – | 7.40 | – | 6.64 | 6.38 | 5.96 | pEC50 [18]: 5.62; pIC50 [17]: 8.82
